The assay deals with Sucrase-isomaltase, intestinal (Rattus norvegicus, UniProt P23739). Kind of assay: Inhibition of rat intestinal sucrase.

SMILES strings stand for the structures.

Sucrase-isomaltase, intestinal, sequence (P23739 1-1013 limits assumed): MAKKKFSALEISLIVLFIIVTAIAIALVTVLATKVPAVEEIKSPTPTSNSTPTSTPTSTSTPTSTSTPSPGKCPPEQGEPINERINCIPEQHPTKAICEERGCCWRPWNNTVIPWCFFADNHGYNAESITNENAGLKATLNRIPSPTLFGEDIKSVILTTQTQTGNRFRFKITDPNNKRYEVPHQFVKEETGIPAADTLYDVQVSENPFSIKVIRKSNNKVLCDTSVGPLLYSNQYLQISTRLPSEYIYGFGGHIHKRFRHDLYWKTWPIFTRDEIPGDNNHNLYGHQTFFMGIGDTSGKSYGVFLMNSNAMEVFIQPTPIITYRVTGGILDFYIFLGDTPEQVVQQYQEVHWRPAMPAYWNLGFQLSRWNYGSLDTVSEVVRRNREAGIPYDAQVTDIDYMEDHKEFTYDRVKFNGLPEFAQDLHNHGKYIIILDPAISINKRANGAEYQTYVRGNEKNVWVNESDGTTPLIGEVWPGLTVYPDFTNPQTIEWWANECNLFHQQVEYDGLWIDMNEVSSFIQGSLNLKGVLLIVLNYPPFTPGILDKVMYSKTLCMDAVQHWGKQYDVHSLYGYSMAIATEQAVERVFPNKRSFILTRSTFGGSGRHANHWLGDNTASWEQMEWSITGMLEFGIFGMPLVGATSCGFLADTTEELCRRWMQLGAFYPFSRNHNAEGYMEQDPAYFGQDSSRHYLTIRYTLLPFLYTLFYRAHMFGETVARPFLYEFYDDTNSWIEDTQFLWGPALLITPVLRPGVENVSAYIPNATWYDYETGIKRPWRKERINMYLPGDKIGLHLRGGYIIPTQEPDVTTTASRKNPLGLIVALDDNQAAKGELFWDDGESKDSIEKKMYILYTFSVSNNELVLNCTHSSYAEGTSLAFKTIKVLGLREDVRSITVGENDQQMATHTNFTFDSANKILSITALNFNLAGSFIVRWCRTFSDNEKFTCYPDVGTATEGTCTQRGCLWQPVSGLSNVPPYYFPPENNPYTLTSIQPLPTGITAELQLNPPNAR
Sucrase-isomaltase, intestinal, sequence (P23739 1014-1841 limits assumed): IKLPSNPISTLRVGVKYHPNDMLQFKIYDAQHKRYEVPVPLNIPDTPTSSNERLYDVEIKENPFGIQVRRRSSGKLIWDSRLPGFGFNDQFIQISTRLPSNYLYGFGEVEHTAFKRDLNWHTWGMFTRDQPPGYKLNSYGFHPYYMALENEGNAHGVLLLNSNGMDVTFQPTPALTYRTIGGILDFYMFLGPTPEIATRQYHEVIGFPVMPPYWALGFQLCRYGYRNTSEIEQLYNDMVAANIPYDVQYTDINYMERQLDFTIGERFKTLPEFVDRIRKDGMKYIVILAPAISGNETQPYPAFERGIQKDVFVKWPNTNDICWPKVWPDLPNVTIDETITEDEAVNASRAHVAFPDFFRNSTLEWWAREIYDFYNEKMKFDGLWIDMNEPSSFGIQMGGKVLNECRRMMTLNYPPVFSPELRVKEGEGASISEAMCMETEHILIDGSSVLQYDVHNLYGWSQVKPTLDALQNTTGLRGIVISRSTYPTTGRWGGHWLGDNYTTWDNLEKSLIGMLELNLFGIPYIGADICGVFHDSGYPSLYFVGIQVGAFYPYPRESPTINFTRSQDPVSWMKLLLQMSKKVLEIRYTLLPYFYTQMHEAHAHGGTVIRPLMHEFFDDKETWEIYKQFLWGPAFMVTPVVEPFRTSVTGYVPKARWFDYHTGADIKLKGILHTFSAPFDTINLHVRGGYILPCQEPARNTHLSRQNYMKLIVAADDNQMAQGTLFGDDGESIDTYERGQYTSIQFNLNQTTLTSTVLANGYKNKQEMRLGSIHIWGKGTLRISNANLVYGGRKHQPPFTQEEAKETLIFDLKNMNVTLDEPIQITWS

Broadly, the IC50 is the concentration that inhibits the measured activity by half. A lower IC50 goes with greater potency. Turning to `O[C@H]1[C@H](O)[C@@H](O)CN2C[C@@H](O)[C@@H](O)[C@H]12`, 3100 nM corresponded to half-maximal inhibition (IC50). This counts as single-digit micromolar.

Take `O[C@H]1[C@H]2[C@H](O)[C@H](O)CN2[C@H](O)C[C@H]1O` [UNIFLORINE B]: it took 1800 nM to reach half-maximal inhibition (IC50).

The values above are taken from ChEMBL document CHEMBL1154357, “Total synthesis of (-)-uniflorine A” (J Nat Prod, 2009).
